The record followed here is patent US10213415B2, “Compounds as opioid receptor modulators” (JANSSEN PHARMACEUTICA NV, priority 2004, dated 2019).

For orientation: EC50 means the concentration at which the effect is half-maximal.

Test [1] deals with male CD-1 mice. Nature of the test: In Vivo Assay: Stress-Induced Entire GI Tract Transit (MEGIT, MEGIT-NES, MEGIT-RS). Also on record: species or system mouse. The settings on record: for MEGIT-RS entire GI transit 5 hr (% RS): dose 20 p.o., restraint stress; for MEGIT entire GI transit 6 hr % ctrl: acclimated mice. The procedure: Methods: The animals used in these studies are male CD-1 mice, ave. wt. ˜30 g. Procedure: Mice were housed in LAM under 12 h/12 h light/dark cycle, food & water ad lib. On the day before the experiments, the mice assigned to the “acclimated” (non-stressed) control group were placed into individual wire mesh-bottomed cages, provided food and water ad lib. The acclimated control group was in this new environment for 16-18 hrs prior to beginning the test. On the day of the experiment, mice assigned to experimental groups were housed in home cages were transported to procedure room and remain in their home cages until the start of the transit portion of the study. […] After the carmine marker was administered each mouse was placed in the novel environment cage. One hour after administration of carmine, the fecal pellet output of each animal was recorded. At one-hour intervals thereafter the fecal pellets were examined for the presence of carmine-dye. The number of mice that excreted a carmine-containing fecal pellet at the end of each hour post carmine administration was recorded, until all mice had excreted carmine in a fecal pellet or the end of 6 hrs post carmine administration, whichever occurred first. A variant of this novel environment stress (NES) paradigm is to use the same procedures of dye and compound administrations, but to use restraint (confinement in a small plastic tube for 3 hr) as a stressor (RS=restraint stress), followed by two hours in an individual cage (total of 5 hr fecal transit time). […] The mouse entire GI tract (MEGIT) transit test can thus be done in mice that are all acclimated (non-stressed), in which case the data are expressed as % control (vehicle only), or in mice that are exposed to NES or RS, in which cases the data are expressed as % of the vehicle treated NES or RS group.

For test [2], the target named is T1, delta opioid receptor (NG108-15 cell membranes) (Mus musculus, UniProt P32300).
T1 construct: NG108-15 cell membranes were purchased from Applied Cell Sciences (Rockville, Md.); host or cells: NG108-15 cells (membranes purchased)
As to the kind of experiment: Delta Opioid Receptor Functional Assay: [35S]GTPγS Binding in NG108-15 Cell Membranes, Version 2. The class given is biochemical. The settings on record: for DOR GTP-binding Assay v2 (% I): % inhibition of agonist-stimulated GTPγS binding. The gist of the method:
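SPA-coupled NG108-15 membranes (37.5 μg/ml) were incubated with 0.1 nM [35S]GTPγS and 100 μM GDP in Tris pH 7.6, 5 mM MgCl2, 100 mM NaCl, with increasing agonist concentrations; 10 μM unlabeled GTPγS defined nonspecific binding. EC50 from % of basal; inhibition as % of 1 μM SNC80 stimulation.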

The subject of test [3] is male CD-1 mice. As to the kind of experiment: In Vivo Assay: Upper GI Tract Transit (MUGIT). The settings on record: Mus musculus, po, 1 h, p.o., read-out: upper GI transit (% ctrl). The procedure:
Methods: The animals used in these studies were male CD-1 mice, ave. wt. ˜30 g. Mice were housed under 12 h/12 h light/dark cycle, food & water ad lib. On the day of the experiment mice were assigned to experimental groups, including one vehicle-only group (=control). At 30 min before administration of carmine dye, animals were dosed with vehicle or vehicle-plus-compound, mice were returned to their home cages after drug administration. After administration of carmine, the animals were either returned to their home cages (non-stressed) or individually placed in the same metal cages as used in the fecal output or entire GI tract transit to induce a novel environment stress. One hour after administration of carmine, mice were sacrificed by cervical dislocation, the abdomen opened midventrally, the small intestine from pylorus to cecum was removed, the mesentery divided in order to lay the intestine straight & flat—without stretching. The total length of intestine and the length of carmine-dyed intestine were measured in order to determine the percent of the upper GI tract over which transit had occurred as follows: {(Length of carmine-dyed intestine)/(Total length of intestine)}×100=% upper GI transit. The data expressed were group means±SD (or s.e.m.) and data expressed as % of control.

Test [4] has as its system novel environment-stressed mice. Nature of the test: In Vivo Assay-Stress-Induced Fecal Output (Fecal Output for 1 hr). Further details: species or system mouse. The settings on record: for response vs control in vivo at 30 mg/kg: Mus musculus, po, 1 h. The gist of the method:
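Adult male Crl:CD-1(ICR) mice (˜30-35 g; at least 10 per dose group) were split into acclimated non-stressed controls, held individually for 16-18 hr in wire-mesh-bottom cages, and non-acclimated stressed groups. Mice were dosed intragastrically with vehicle or test compound in 0.5% methylcellulose, housed individually in novel cages over absorbent cardboard, and fecal pellets per mouse were counted hourly.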

The mark [5] stands for this setting: NG108-15 cell membranes, [35S]GTPγS, version 2, read-out: DOR GTP-binding Assay_v2_ EC50.
[6] abbreviates: NG108-15 cell membranes, version 2.

SMILES strings stand for the structures. Like-named read-outs stand apart in the source and are kept apart here. Where only a bound is given, the exact number is not on record here.

T1 sequence (P32300 whole entry): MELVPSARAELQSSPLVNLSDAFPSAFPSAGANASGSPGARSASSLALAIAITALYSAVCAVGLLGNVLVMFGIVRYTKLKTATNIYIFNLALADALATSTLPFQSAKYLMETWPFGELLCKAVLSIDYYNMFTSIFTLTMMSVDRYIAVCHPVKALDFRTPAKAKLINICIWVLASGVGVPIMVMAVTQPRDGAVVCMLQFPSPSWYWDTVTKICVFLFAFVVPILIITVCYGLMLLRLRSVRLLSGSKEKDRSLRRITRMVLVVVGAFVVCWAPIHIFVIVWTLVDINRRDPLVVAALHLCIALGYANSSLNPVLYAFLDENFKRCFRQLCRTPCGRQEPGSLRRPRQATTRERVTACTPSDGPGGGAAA

As to `COc1ccc(CN(C(=O)[C@@H](N)Cc2ccc(C(N)=O)cc2)[C@@H](C)c2nc(-c3ccccc3)c[nH]2)cc1C(=O)O` [Cpd 4], the “MEGIT-RS entire GI transit 5 hr (% RS)” value with male CD-1 mice [1] was 100 % RS. Besides, in test [2] (setting [5]), the EC50 stood at 46 nM. Further, in test [2] (setting [6]), the “DOR GTP-binding Assay v2 (% I)” value is listed as 66.12%.

In the case of `COc1ccc(CN(C(=O)[C@@H](N)Cc2ccc(O)cc2)[C@@H](C)c2nc(-c3ccccc3)c[nH]2)cc1C(=O)O` [Cpd 261], the response vs control in vivo at 30 mg with male CD-1 mice [3] is 87.7%. The “MEGIT-RS entire GI transit 5 hr (% RS)” value in the test on male CD-1 mice [1] was found to be 103.6 % RS. The EC50 in test [2] (setting [5]) is 21 nM. The “DOR GTP-binding Assay v2 (% I)” value in test [2] (setting [6]) amounted to 30.04%.

For the compound `COc1ccc(CN(C(=O)[C@@H](N)Cc2c(C)cc(C(N)=O)cc2C)[C@@H](C)c2nc(-c3ccc(I)cc3)c[nH]2)cc1C(=O)O` [Cpd 289], the response vs control in vivo at 30 mg in the test on male CD-1 mice [3] turned out to be 76.4%. The “MEGIT-RS entire GI transit 5 hr (% RS)” value in the test on male CD-1 mice [1] is given as 14.1 % RS. The EC50 in test [2] (setting [5]) is more than 10000 nM. In addition, the “DOR GTP-binding Assay v2 (% I)” value in test [2] (setting [6]) is reported as 86.27%.

With `Cc1cc(C(N)=O)cc(C)c1C[C@H](N)C(=O)N(Cc1cccc(C(=O)O)c1)[C@@H](C)c1nc(-c2ccccc2)c[nH]1` [Cpd 227], the response vs control in vivo at 30 mg in the test on male CD-1 mice [3] amounted to 93.9%. Moreover, in the test on male CD-1 mice [1], the “MEGIT-RS entire GI transit 5 hr (% RS)” value is 100 % RS. The EC50 in test [2] (setting [5]) was more than 10000 nM. Further, in test [2] (setting [6]), the “DOR GTP-binding Assay v2 (% I)” value came out at 66.56%.

`COc1ccc(CN(C(=O)[C@@H](N)Cc2c(C)cc(C(N)=O)cc2C)[C@@H](C)c2nc(-c3ccccc3)c[nH]2)cc1OC` [Cpd 75]: the response vs control in vivo at 30 mg in the test on male CD-1 mice [3] came to 71.1%. In addition, in the test on male CD-1 mice [3] (dose 60 (mg)), the response vs control in vivo at 60 mg was found to be 56%. Moreover, in the test with male CD-1 mice [3], the response vs control in vivo at 100 mg was found to be 45.6%. Also, the “MEGIT entire GI transit 6 hr % ctrl” value is 125 % ctrl with male CD-1 mice [1] (dose 30 p.o.), 0 % ctrl in the test with male CD-1 mice [1] (dose 60 p.o.) and 0 % ctrl in the test on male CD-1 mice [1] (dose 100 p.o.). Moreover, the EC50 in test [2] (setting [5]) is 1.4 nM. The “DOR GTP-binding Assay v2 (% I)” value in test [2] (setting [6]) amounted to 65.35%. Also, in test [4] (dose 3.0, oral, NES mice, vs acclimated control), the “Fecal pellet output, Compound (% control) 3.0” value is listed as 223.8 % control. Moreover, the “Fecal pellet output, Compound (% control) 10.0” value in test [4] (dose 10.0, oral, NES mice, vs acclimated control) turned out to be 188.1 % control. The “Fecal pellet output, Compound (% control) 30.0” value in test [4] (dose 30.0, oral, NES mice, vs acclimated control) is listed as 100 % control.

In the case of `Cc1cc(C(N)=O)cc(C)c1C[C@H](N)C(=O)N(Cc1cccc(-c2nnn[nH]2)c1)[C@@H](C)c1nc(-c2ccccc2)c[nH]1` [Cpd 242], the “MEGIT-RS entire GI transit 5 hr (% RS)” value in the test with male CD-1 mice [1] worked out at 100 % RS. Also, the 50% effective concentration (EC50) in test [2] (setting [5]) was more than 10000 nM. The “DOR GTP-binding Assay v2 (% I)” value in test [2] (setting [6]) turned out to be 91.45%.

Turning to `COc1ccc(CN(C(=O)[C@@H](N)Cc2c(C)cc(C(N)=O)cc2C)[C@@H](C)c2nc(-c3ccccc3)c[nH]2)cc1C(=O)O` [Cpd 18], the response vs control in vivo at 5 mg with male CD-1 mice [3] (dose 5 (mg)) was determined as 94.2%. Besides, the response vs control in vivo at 10 mg in the test on male CD-1 mice [3] (dose 10 (mg)) came out at 99.6%. In addition, the response vs control in vivo at 25 mg in the test on male CD-1 mice [3] (dose 25 (mg)) amounted to 83%. Besides, in the test on male CD-1 mice [3], the response vs control in vivo at 30 mg is 37.5% and the response vs control in vivo at 100 mg amounted to 41.2%. For the same compound, the response vs control in vivo at 50 mg in the test on male CD-1 mice [3] (dose 50 (mg)) amounted to 69.9%. The “MEGIT-NES Entire GI transit 6 hr (% NES)” value in the test with male CD-1 mice [1] (dose 30 p.o., novel environment stress) came to 80 % NES. The compound also gave an EC50 in test [2] of more than 10000 nM. Also, in test [2] (setting [6]), the “DOR GTP-binding Assay v2 (% I)” value was 100%. Moreover, in test [4] (30 mg/kg oral, novel environment-stressed mice, 1 hr), the “Fecal Output (# pellets) cpd” value came out at 3.1 pellets. The response vs control in vivo at 30 mg/kg in test [4] (30 mg/kg oral, relative to acclimated control, 1 hr, read-out: Fecal Output cpd % control) was determined as 138%. For the same compound, the response vs control in vivo at 30 mg/kg in test [4] (30 mg/kg oral, relative to novel environment stress (NES) vehicle group, 1 hr, read-out: Fecal Output cpd % NES) was 82.7%.
